Measured values from patent publication US7205299B2, “Indole derivatives having an apoptosis-inducing effect” (Zentaris GmbH, priority 2003, dated 2007).
Values after ≈ are worked out from the molar mass of the structure shown.

Assays:
resistant line LT12/mdr = experiment: XTT proliferation assay, LT12/mdr; format: cell-based; conditions: Rattus norvegicus, LT12mdr
Excerpt: (§1) For further characterization, substances 1, 2, 4 and 11 were investigated with regard to their effect on mulitdrug-resistance cell lines as compared with that on nonresistant wild-type cell lines.
(§2) The cell lines which were investigated are the murine cell line L1210, the acute myeloid leukemia cell line LT12 and the resistant lines L1210/mdr and LT12/mdr. The murine cell line P388 (methylcholanthrene-induced lymphoid neoplasm) and doxorubicin-resistant P388 were also included as test systems.
(§3) The test results are summarized in Table 2 below: • XTT proliferation assay, EC50 in μg/ml

[1] = tested on: human cervical carcinoma cell line KB/HeLa; experiment: XTT proliferation assay, KB/HeLa; format: cell-based
Excerpt: (§4) The antiproliferative activity of substances 1, 2, 4, 9, 11, 12, 13 and 15 was investigated in a proliferation test performed on established tumor cell lines (D. A. Scuderio et al. Cancer Res. 1988, 48, 4827–4833). The test which is used determines the cellular dehydrogenase activity and makes it possible to determine cell viability and determine cell number indirectly. The cell lines which are used are the human cervical carcinoma cell line KB/HeLa (ATCC CCL17), the ovarian adenocarcinoma cell line SKOV-3 (ATCC HTB77), the human glioblastoma cell line SF-268 (NCI 503138) and the lung carcinoma cell line NCI-H460 (NCI 503473).

[2] = tested on: doxorubicin-resistant P388; experiment: XTT proliferation assay, P388ADR; format: cell-based, murine; conditions: Mus musculus
Excerpt: as §1, §2, §3

KB/HeLa cells = experiment: Cell cycle analysis (G2/M arrest); format: cell-based; conditions: Homo sapiens, 24 hours, 37° C., read-out: EC50 (50% of cells in G2/M)
Description: For the cell cycle analysis, KB/HeLa cells were treated with different concentrations of the test substances (0.1–1000 nM) at 37° C. for 24 hours.
The percentage of cells arrested in the G2/M phase of the cell cycle after having been treated with reference substances or selected test substances is shown in Table 4 below. The results were analyzed using special analytical software (ModFit™).

bovine tubulin = bovine tubulin (Bos taurus, UniProt P81947+Q6B856); experiment: Inhibition of tubulin polymerization; format: biochemical; conditions: summary of Table 3
Description: Substances 1, 4, 9, 11, 12, 13 and 15 were tested for their ability to inhibit the polymerization of bovine tubulin in an in-vitro test (D. M. Bollag et al. Cancer Res. 1995, 55, 2325–2333). This test uses-tubulin which has been purified by cycles of polymerization and depolymerization and which is caused to polymerize by adding GTP and heating it. Table 3 gives the EC50 values causing inhibition of the polymerization of tubulin containing 30% associated proteins (MPAs).

[3] = tested on: lung carcinoma cell line NCI-H460; experiment: XTT proliferation assay, NCI-H460; format: cell-based, human
Excerpt: as §4

murine cell line P388 = experiment: XTT proliferation assay, P388; format: cell-based; conditions: Mus musculus
Excerpt: as §1, §2, §3

[4] = tested on: resistant line L1210/mdr (L1210VCR); experiment: XTT proliferation assay, L1210VCR; format: cell-based, murine; conditions: Mus musculus
Excerpt: as §1, §2, §3

[5] = tested on: human glioblastoma cell line SF-268; experiment: XTT proliferation assay, SF-268; format: cell-based
Excerpt: as §4

[6] = tested on: acute myeloid leukemia cell line LT12; experiment: XTT proliferation assay, LT12; format: cell-based; conditions: Rattus norvegicus
Excerpt: as §1, §2, §3

[7] = tested on: ovarian adenocarcinoma cell line SKOV-3; experiment: XTT proliferation assay, SKOV-3; format: cell-based, human
Excerpt: as §4

murine cell line L1210 = experiment: XTT proliferation assay, L1210; format: cell-based; conditions: Mus musculus
Excerpt: as §1, §2, §3

[8] = biological target: human DNA topoisomerase II (Homo sapiens, UniProt P11388); experiment: kDNA assay for testing topoisomerase II activity; format: biochemical; conditions: compound 1 at 100, 31.6 and 10 μM; reference compounds 100 μM
Description: In this assay, which was described by P. Arimondo (Anti-Cancer Drug Design 2000, 15(6), 413–421), kDNA is treated with human DNA topoisomerase II in the absence or presence of the test compounds. In the assay, compound 1 according to the invention was tested at three different concentrations (100, 31.6 and 10 μM). A positive control and the reference compounds m-amsacrine (m-amsa), paclitaxel (Taxol) and vincristine, with the concentration in each case being 100 μM, were used for comparison.
2 μL of 10× assay buffer, 1 μL of kDNA (200 ng), 0.5 μL of human topoisomerase II (1 unit) and 15.5 μL of H2O are added by pipette to 1 μL of initially introduced test substance (20 times concentrated in 100% DMSO) and the reagents are mixed.
The reaction assay samples are placed in a heating block which has been preheated to 37° C. and incubated at 37° C. for 10 min. The incubation is stopped after adding 4 μL of 5× Stop buffer and the substance is subsequently extracted with CIA. After that, 20 μL of the supernatant are loaded onto a 1% agarose gel containing 0.25 μg of ethidium bromide/mL and separated at 100 V for 1 h. Finally, the gel is photographed under UV excitation (see FIG. 1). The inhibition of the decatenation of kDNA is quantified using the GelPro® Analyzer Software (see FIG. 2).

human topoisomerase II = human topoisomerase II (Homo sapiens, UniProt P11388); experiment: pRYG relaxation assay for testing topoisomerase II activity; format: biochemical; conditions: compound 1 at 100, 31.6 and 10 μM; reference compounds 316 and 100 μM
Description: In the assay, the compound 1 according to the invention was tested at three different concentrations (100, 31.6 and 10 μM). The reference compounds m-amsacrine, paclitaxel (Taxol) and vincristine were used, at concentrations of 316 and 100 μM, for comparison.
2 μL of 10× assay buffer, 0.5 μL of pRYG DNA (125 ng), 0.5 μL of human topoisomerase II (1 unit) and 16 μL of H2O are added by pipette to 1 μL of initially introduced test substance (20 times concentrated in 100% DMSO) and the reagents are mixed. The reaction assay samples are placed in a heating block which has been preheated to 37° C. and incubated at 37° C. for 30 min. The incubation is stopped after adding 4 μL of 5× Stop buffer. After that, 10 μL of the assay sample are loaded onto a 1.2% agarose gel containing 0.25 μg of ethidium bromide/mL and separated at 100 V for 2.5 h. Finally, the gel is photographed under UV excitation (see FIG. 3). The inhibition of pRYG relaxation is quantified using the GelPro® Analyzer Software (see FIG. 4).

Chain of bovine tubulin (P81947 whole entry): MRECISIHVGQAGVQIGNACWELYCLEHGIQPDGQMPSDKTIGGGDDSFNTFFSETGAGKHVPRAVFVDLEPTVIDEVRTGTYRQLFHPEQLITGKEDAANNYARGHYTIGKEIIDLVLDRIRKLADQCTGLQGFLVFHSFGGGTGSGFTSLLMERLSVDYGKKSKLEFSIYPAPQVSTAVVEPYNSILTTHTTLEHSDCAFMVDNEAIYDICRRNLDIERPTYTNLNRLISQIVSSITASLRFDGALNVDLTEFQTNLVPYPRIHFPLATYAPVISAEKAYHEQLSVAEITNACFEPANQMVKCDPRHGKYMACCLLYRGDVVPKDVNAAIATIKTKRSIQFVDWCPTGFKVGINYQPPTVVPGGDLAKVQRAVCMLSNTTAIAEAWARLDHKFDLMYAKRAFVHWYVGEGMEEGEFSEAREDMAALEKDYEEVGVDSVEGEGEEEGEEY
Chain of bovine tubulin (Q6B856 whole entry): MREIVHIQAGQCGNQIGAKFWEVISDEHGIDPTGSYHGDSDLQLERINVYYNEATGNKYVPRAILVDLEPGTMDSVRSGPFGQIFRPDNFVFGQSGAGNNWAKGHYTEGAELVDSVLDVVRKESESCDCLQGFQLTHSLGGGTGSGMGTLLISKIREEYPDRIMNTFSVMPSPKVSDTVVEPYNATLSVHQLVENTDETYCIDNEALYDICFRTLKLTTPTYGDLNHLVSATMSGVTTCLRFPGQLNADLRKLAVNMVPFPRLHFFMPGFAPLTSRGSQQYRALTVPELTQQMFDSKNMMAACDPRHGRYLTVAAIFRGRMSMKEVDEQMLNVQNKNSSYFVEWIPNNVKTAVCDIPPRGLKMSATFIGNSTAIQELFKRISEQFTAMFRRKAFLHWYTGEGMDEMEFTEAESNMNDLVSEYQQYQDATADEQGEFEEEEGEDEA
Chain of human DNA topoisomerase II (P11388 whole entry): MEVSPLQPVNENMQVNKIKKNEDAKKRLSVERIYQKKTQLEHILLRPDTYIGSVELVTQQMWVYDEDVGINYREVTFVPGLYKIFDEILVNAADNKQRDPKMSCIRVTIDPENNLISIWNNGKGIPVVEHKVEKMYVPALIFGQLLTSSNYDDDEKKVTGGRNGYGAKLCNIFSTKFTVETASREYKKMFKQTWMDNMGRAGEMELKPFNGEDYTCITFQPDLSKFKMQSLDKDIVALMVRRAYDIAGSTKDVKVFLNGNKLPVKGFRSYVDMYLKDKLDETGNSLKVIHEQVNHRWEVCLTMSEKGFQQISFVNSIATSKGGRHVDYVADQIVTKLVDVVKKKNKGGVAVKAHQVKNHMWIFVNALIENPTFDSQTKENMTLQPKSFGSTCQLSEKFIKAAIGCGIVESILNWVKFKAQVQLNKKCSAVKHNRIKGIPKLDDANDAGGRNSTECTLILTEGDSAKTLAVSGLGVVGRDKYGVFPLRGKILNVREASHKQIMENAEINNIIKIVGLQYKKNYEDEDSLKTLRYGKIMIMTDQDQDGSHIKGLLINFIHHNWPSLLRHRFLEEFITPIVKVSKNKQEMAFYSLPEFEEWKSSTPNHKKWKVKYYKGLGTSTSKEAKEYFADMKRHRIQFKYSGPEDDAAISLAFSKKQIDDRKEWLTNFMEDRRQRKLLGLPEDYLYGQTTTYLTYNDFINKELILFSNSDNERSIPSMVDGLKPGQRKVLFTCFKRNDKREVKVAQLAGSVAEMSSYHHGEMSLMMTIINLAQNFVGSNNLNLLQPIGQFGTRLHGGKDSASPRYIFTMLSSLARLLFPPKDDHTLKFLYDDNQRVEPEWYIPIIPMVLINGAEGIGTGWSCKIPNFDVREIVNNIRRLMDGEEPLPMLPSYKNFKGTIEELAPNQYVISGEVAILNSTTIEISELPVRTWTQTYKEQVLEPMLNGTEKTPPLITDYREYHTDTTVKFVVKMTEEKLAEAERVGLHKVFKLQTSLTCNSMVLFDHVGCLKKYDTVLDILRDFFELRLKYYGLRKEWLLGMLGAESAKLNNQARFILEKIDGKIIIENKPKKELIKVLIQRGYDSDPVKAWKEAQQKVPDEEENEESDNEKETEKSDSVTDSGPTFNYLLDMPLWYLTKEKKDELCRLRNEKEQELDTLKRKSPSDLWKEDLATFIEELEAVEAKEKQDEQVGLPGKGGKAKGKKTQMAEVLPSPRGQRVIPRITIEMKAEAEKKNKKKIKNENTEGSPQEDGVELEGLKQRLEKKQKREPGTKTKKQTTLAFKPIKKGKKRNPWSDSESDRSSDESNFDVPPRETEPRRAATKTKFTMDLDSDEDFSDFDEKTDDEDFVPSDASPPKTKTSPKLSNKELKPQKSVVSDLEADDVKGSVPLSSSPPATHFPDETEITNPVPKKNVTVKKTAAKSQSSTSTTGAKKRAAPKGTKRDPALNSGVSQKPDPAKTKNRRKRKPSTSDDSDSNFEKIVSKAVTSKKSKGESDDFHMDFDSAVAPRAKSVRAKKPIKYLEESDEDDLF
Chain of human topoisomerase II (P11388 whole entry): as above

O=C(Nc1ccc2ncccc2c1)C(=S)c1cn(Cc2ccc(Cl)cc2)c2ccccc12 [Compound 11, 2-[1-(4-chlorobenzyl)-1H-indol-3-yl]-N-quinolin-6-yl-2-thioxoacetamide]
EC50 (resistant line LT12/mdr): 0.054 µg/mL (≈ 0.118 µM)
EC50 ([1]; Homo sapiens, HeLa): 0.036 µg/mL (≈ 0.079 µM)
EC50 [2]: 0.051 µg/mL (≈ 0.112 µM)
EC50 (KB/HeLa cells): 41.8 nM
inhibitory effect on tubulin polymerization (in words) (bovine tubulin): very potent inhibitory effect
EC50 ([3]; Homo sapiens): 0.057 µg/mL (≈ 0.125 µM)
EC50 (murine cell line P388): 0.018 µg/mL (≈ 0.0395 µM)
EC50 [4]: 0.067 µg/mL (≈ 0.147 µM)
EC50 ([5]; Homo sapiens): 0.036 µg/mL (≈ 0.079 µM)
EC50 [6]: 0.023 µg/mL (≈ 0.0504 µM)
EC50 ([7]; Homo sapiens, SK-OV-3, read-out: XTT proliferation assay, EC50, SKOV3): 0.029 µg/mL (≈ 0.0636 µM)
EC50 (murine cell line L1210): 0.052 µg/mL (≈ 0.114 µM)

O=C(Nc1cccc2cnccc12)C(=O)c1cn(Cc2ccc(Cl)cc2)c2ccccc12 [Compound 13, 2-[l-(4-chlorobenzyl)-1H-indol-3-yl]-N-isoquinolin-5-yl-2-oxoacetamide]
XTT proliferation assay, EC50, KB/HeLa ([1]; KB/HeLa): >3.16 µg/mL
inhibitory effect on tubulin polymerization (in words) (bovine tubulin): do not exert any effect
XTT proliferation assay, EC50, NCI-H460 [3]: >3.16 µg/mL
XTT proliferation assay, EC50, SF-268 [5]: >3.16 µg/mL
XTT proliferation assay, EC50, SKOV3 ([7]; SKOV3): >3.16 µg/mL

CC(=O)O[C@H]1C(=O)[C@@]2(C)[C@H]([C@H](OC(=O)c3ccccc3)[C@]3(O)C[C@H](OC(=O)[C@H](O)[C@@H](NC(=O)c4ccccc4)c4ccccc4)C(C)=C1C3(C)C)[C@]1(OC(C)=O)CO[C@@H]1C[C@@H]2O [Paclitaxel, paclitaxel]
EC50 (resistant line LT12/mdr): 0.34 µg/mL (≈ 0.398 µM)
EC50 [2]: > 3.16 µg/mL
EC50 (KB/HeLa cells): 26.9 nM
EC50 (murine cell line P388): 0.035 µg/mL (≈ 0.041 µM)
inhibition of topoisomerase II, kDNA decatenation [8]: neither paclitaxel nor vincristine was observed to have any inhibitory effects
EC50 [4]: > 3.16 µg/mL
inhibition of topoisomerase II, pRYG DNA relaxation (human topoisomerase II): neither paclitaxel nor vincristine was observed to have any inhibitory effects
EC50 [6]: 0.005 µg/mL (≈ 0.00586 µM)
EC50 (murine cell line L1210): 0.048 µg/mL (≈ 0.0562 µM)
